Molecular target: T1, TMEM16B (Mus musculus, UniProt Q8CFW1)
T1 sequence (Q8CFW1 1-1002): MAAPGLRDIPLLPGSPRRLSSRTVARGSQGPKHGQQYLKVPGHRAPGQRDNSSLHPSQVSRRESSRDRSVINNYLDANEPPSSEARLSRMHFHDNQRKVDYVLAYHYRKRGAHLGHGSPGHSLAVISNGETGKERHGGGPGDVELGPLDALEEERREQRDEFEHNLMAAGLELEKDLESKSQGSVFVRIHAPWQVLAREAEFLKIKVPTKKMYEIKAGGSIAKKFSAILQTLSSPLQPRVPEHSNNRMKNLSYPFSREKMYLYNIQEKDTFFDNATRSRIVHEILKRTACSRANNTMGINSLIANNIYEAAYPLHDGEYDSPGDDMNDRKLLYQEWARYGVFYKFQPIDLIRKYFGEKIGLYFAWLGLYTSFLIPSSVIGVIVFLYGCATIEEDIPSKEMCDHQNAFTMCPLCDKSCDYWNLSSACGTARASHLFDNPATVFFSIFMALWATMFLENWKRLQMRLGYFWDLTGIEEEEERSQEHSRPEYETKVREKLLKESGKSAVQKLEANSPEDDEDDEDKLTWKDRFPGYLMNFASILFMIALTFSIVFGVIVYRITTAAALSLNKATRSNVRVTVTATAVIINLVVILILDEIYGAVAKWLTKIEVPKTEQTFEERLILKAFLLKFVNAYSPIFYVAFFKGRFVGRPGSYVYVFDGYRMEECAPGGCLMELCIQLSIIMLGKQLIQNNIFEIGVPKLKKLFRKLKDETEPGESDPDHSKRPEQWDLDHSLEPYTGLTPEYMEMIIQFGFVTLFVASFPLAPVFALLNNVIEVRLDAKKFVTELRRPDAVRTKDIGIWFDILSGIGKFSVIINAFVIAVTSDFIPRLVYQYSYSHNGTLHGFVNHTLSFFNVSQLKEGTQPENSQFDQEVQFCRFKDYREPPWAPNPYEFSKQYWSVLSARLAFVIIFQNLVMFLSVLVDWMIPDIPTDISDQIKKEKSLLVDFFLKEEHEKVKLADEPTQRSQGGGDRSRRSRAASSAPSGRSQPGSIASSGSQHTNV
Assay: whole-cell patch clamp of transfected HEK293 cells
Format: cell-based

Q: For `O=C(NC1(c2ccccc2)CC1)c1c(CN2CCC(N3CCCCC3)CC2)c(-c2cccc(C(F)(F)F)c2)nc2cc(Br)ccc12` [GSKb, GSK2193874], which EC50 is on record?
A: The EC50 was 24.2 nM.

From article PMC8646129 (Biochemistry and Biophysics Reports, 2021)
